One assay concerns the target T1, WT-TTR (Homo sapiens, UniProt P02766).
T1 construct: composed of 127-residue β-sheet-rich subunits; made in house; host or cells: E. coli
Put plainly: Fluorimetric assay with recombinant WT-TTR. The class given is binding. The note with it: for increase in fluorescence intensity with WT-TTR vs compound alone in buffer: 24 hours. How it is done:
WT-TTR was expressed in an E. coli expression system and purified as described previously. […] The samples were vortexed, and incubated for 18 h at 25° C. […] The excitation slit was set at 5 nm and the emission slit was set at […]. The samples were excited at 328 nm and the emission spectra were collected from 350 to 550 nm. WT-TTR was expressed and purified from an E. coli expression system as described previously. [Lashuel et al., Biochemistry 1999, 38:13560]. […] The samples were vortexed, and incubated for 18 hours at 25° C. […] The excitation slits was set at 5 nm and the emission slits was set at […]. The samples were excited at 328 nm and the emission spectra were collected from 330 to 550 nm (FIG. 4). The time-dependent fluorescence changes were monitored in similar manner (FIG. 5).

Assay [1] deals with T2, K15A-TTR (Homo sapiens, UniProt P02766, K35A).
T2 construct: composed of 127-residue β-sheet-rich subunits; made in house
Put plainly: Fluorimetric assay with recombinant K15A-TTR. It counts as binding. How it is done:
[The source words this procedure for another variant and says it was used here with some conditions changed.] The excitation spectra are shown with dotted traces (λmax=328 nm), and emission spectra are adjacently (λmax=384 nm). Very low fluorescence resulted from 328 nm excitation of stilbene Compounds 4 or 2 alone in buffer (FIGS. 4A and 4B; traces substantially on the X-axis).
WT-TTR was expressed in an E. coli expression system and purified as described previously. [Lashuel et al., Biochemistry 1999, 38, 13560-13573] The covalent TTR modifiers (A1 or A2) or the non-covalent TTR ligand B2 (5 μL of a 1.44 mM solution in DMSO, final concentration: 7.2 μM) were added to 1 mL of a solution of WT-TTR homotetramer (0.2 mg/mL, 3.6 μM) in 10 mM phosphate, 100 mM KCl and 1 mM EDTA (pH 7.0 phosphate buffer) in a 2 mL Eppendorf tube. The samples were vortexed, and incubated for 18 h at 25° C. The fluorescence changes were monitored using a Varian Cary 50 spectrofluorometer at 20° C. in a 1 cm path length quartz cell. The excitation slit was set at 5 nm and the emission slit was set at […]. The samples were excited at 328 nm and the emission spectra were collected from 350 to 550 nm.
WT-TTR was expressed and purified from an E. coli expression system as described previously. [Lashuel et al., Biochemistry 1999, 38:13560]. The covalent modifiers (Compounds 4 or 2) or the non-covalent TTR ligand Compound B2 (5 μL of a 1.44 mM solution in DMSO) were added to 1 mL of a solution of WT-TTR (0.2 mg/mL, 3.6 μM) in 10 mM phosphate, 100 mM KCl and 1 mM EDTA (pH 7.0) in a 2 mL Eppendorf tube. The samples were vortexed, and incubated for 18 hours at 25° C. The fluorescence changes were monitored using a Varian Cary 50 spectrofluorometer at 20° C. in a 1 cm path length quartz cell. The excitation slits was set at 5 nm and the emission slits was set at […]. The samples were excited at 328 nm and the emission spectra were collected from 330 to 550 nm (FIG. 4). The time-dependent fluorescence changes were monitored in similar manner (FIG. 5).

Assay [2] has as its target T2, K15A-TTR. Put plainly: Non-covalent binding stoichiometry to K15A-TTR (immunocapture, HPLC). The note with it: maximum of 2 equivalents, washing, high-pH dissociation. From the text: K15A-TTR and any compound bound to it was immunocaptured using a Sepharose-resin-conjugated anti-TTR antibody.
The ability of compounds A1 and A2, auxochromic analogs of previously discussed stilbenes [Klabunde et al., Nat. Struct. Biol. 2000, 7, 312-321; Connelly et al., Curr. Opin. Struc. Biol. 2010, 20, 54-62; Johnson et al., J. Med. Chem. 2008, 51, 6348-6358; Choi et al., J. Am. Chem. Soc. 2010, 132, 1359-1370; Choi et al., Nat. Chem. Biol. 2010, 6, 133-139; and Baures et al., Bioorg. Med. Chem. 1998, 6, 1389-1401] to form a chemoselective amide bond with the K15 residue of TTR was assessed by reverse-phase-HPLC and liquid chromatography-mass spectrometry analysis. […]
To 1 mL of WT- or K15A-TTR (5 μM in pH 7.0 phosphate buffer) in a 2 mL Eppendorf tube was added A2 (5 μL of a 2 mM solution in DMSO, final concentration: 10 μM) and then the solution was incubated at 37° C. for 24 hours on a rocker plate (30 rpm). […] After centrifugation, the supernatant was analyzed by reverse phase HPLC on a Water 600 E multi-solvent delivery system, using a Waters 486 tunable absorbance detector, a 717 autosampler, and a ThermoHypersil Keystone Betabasic-18 column (150 Å pore size, 3 μm particle size). […]

As to `Cc1cc(/C=C/c2cccc(C(=O)Sc3ccccc3)c2)cc(C)c1O` [Compound 2, (E)-S-phenyl 3-(4-hydroxy-3,5-dimethylstyryl)benzothioate], on WT-TTR (WT-TTR […], compound 7.2 μM), the “t50 of conjugation to WT-TTR by fluorescence” value worked out at 22 min and the “increase in fluorescence intensity with WT-TTR vs compound alone in buffer” value is “about 1100 fold”. The “fluorescence upon binding to K15A-TTR (in words)” value (from here on “fluorescence upon binding”) at K15A-TTR [1] is “remain non-fluorescent”.

As to `Cc1cc(/C=C/c2cccc(C(=O)Oc3ccc(F)cc3)c2)cc(C)c1O` [Compound 4, (E)-4-fluorophenyl 3-(4-hydroxy-3,5-dimethylstyryl)benzoate], the “equivalents non-covalently bound to K15A-TTR homotetramer” value at K15A-TTR [2] stood at 1.4 equivalents. Moreover, the “increase in fluorescence intensity with WT-TTR vs compound alone in buffer” value on WT-TTR (WT-TTR […], compound 7.2 μM) is reported as “about 560 fold”. Moreover, at K15A-TTR [1], the “fluorescence upon binding” value is “remain non-fluorescent”.

Regarding `Cc1cc(/C=C/c2cc(C(=O)Sc3ccc(F)cc3)cc(N(C)C)c2)cc(C)c1O` [Compound A2, (E)-S-4-fluorophenyl 3-(dimethylamino)-5-(4-hydroxy-3,5-dimethylstyryl)-benzothioate], the “equivalents non-covalently bound to K15A-TTR homotetramer” value at K15A-TTR [2] worked out at 0.88 equivalents. Besides, the “fluorescence after incubation with WT-TTR (in words)” value on WT-TTR (phosphate buffer pH 7, 18 hours) is recorded as “bright blue fluorescence”. Moreover, the “fluorescence upon binding” value on K15A-TTR [1] is “no significant fluorescence increase”.
